Laboratory results: US12398155B2, “Thienopyridinone compounds” (Janssen Pharmaceutica NV, priority 2019, dated 2025)

Legend:
[1] = tested on: NIH/3T3 cells transfected with control vector; assay: NIH/3T3 mock cell proliferation assay (counter assay, general toxicity); type: cell-based; conditions: Mus musculus, NIH3T3; 72-hr incubation, CellTiter Glo; read-out: NIH/3T3 MOCK CTG
Protocol: NIH/3T3 Mock Cell Proliferation Assay
In day 1, 90 μL of cell suspension (NIH/3T3 cells transfected with the same control vector as in the above two proliferation assays) (total 30,000 cells per well in growth medium (DMEM containing 1% Glutamax, 10% FBS and 1% Pen/Strep)) was seeded in a 96-well plate and then incubated overnight at 37° C. and 5% CO2. In day 2, 10 μL of growth medium containing 10-fold stock solution of testing compound was added into cell cultures (9 dose points with 3× serial dilution, starting with 30 μM, 0.3% DMSO final). After 72-hr incubation at 37° C. and 5% CO2, in day 5 a volume of 50 μL CellTiter Glo (CTG) reagent was added into cell-containing 96-well plate and the plate was incubated at room temperature for 10 minutes before RLUs (relative light unit) were measured on a microplate reader with luminescence detection module. The RLU value was normalized to survival % and concentration-response curve was plotted using Prism to calculate IC50 (M), pIC50 (−log IC50) and HillSlope value.

[2] = biological target: T1, human FGFR3 V555L enzyme (cytoplasmic domain carrying V555L mutation) (Homo sapiens, UniProt P22607, V555L); assay: FGFR3 V555L mobility shift assay (enzymatic assay); type: biochemical; conditions: 40 μM ATP, 50 minutes at 30° C.; read-out: FGFR3 V555L Caliper
T1 construct: cytoplasmic domain carrying V555L mutation, from Cama Biosciences; purchased Cama Biosciences (so in the source)
T1 sequence (P22607 397-806 V555L limits assumed): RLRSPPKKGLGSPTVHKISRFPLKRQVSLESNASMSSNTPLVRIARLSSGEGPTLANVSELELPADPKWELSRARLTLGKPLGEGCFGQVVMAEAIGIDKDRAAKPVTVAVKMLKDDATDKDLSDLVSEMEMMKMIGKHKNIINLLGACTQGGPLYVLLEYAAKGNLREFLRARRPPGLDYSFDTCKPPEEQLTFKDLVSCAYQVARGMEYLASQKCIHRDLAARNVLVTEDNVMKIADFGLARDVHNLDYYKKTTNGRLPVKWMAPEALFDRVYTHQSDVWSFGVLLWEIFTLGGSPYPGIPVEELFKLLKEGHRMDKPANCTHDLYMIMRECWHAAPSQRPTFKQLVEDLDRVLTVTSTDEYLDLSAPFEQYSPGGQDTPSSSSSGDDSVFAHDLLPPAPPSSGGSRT
Protocol: FGFR3 V555L Mobility Shift Assay (Enzymatic Assay)
(§1) In a final reaction volume of 25 μL, 0.04 ng/μL human FGFR3 V555L enzyme (cytoplasmic domain carrying V555L mutation, from Cama Biosciences) was incubated with 40 μM ATP, 1 μM FL-peptide 30 substrate and 250 nL of testing compound (1% DMSO final) in assay buffer (100 mM HEPES pH 7.4, 10 mM MgCl2, 0.003% Brij35, 1 mM DTT). After incubation for 50 minutes at 30° C. the reaction was stopped with 10 μL of 0.5M EDTA pH 8.0, and then 25 μL of reaction mixture was transferred to reading plate and measured on Caliper EZ reader II. The substrate-product conversion rate was used as raw data for normalization and concentration-response curve (10 dose points with 4× serial dilution, starting with 10 μM) was plotted using Prism to calculate IC50 (M), pIC50 (−log IC50) and HillSlope value.

[3] = tested on: NIH/3T3 cells overexpressing FGFR3 V555M-TACC3 fusion protein; assay: NIH/3T3 FGFR3 V555M-TACC3 cellular phospho-ERK assay (in vitro PD assay); type: cell-based; conditions: Mus musculus, NIH3T3; 1-hr incubation, AlphaLISA p-ERK1/2; read-out: NIH/3T3 FGFR3 V555M-TACC3 pERK
Protocol: NIH/3T3 FGFR3 V555M-TACC3 Cellular Phospho-ERK Assay (In Vitro PD Assay)
50 μL of cell suspension (NIH/3T3 cells overexpressing FGFR3 V555M-TACC3 fusion protein) (total 10,000 cells per well in growth medium (DMEM containing 1% Glutamax, 10% FBS and 1% Pen/Strep)) was seeded in a 384-well plate. After overnight incubation at 37° C. and 5% CO2, 5.5 μL of growth medium containing 10× testing compound was added into cell cultures (10 dose points with 4× serial dilution, starting with 10 μM, 0.1% DMSO final). After 1-hr incubation at 37° C. and 5% CO2, the medium was depleted and AlphaLISA SureFire Ultra p-ERKI1/2 (Thr202/Tyr204) Assay Kit (from PerkinElmer) was applied for phospho-ERK level detection according to the kit instructions. The RFUs (relative fluorescence units were measured on EnVision microplate reader (ex. 680 nm, em. 615 nm) and concentration-response curve was plotted using Prism to calculate IC50 (M), pIC50 (−log IC50) and HillSlope value.

[4] = biological target: T2, human FGFR3 wild type enzyme (cytoplasmic domain) (Homo sapiens, UniProt P22607); assay: FGFR3 wild type mobility shift assay (enzymatic assay); type: biochemical; conditions: 75 μM ATP, 50 minutes at 30° C.; read-out: FGFR3 wild type Caliper
T2 construct: human FGFR3 wild type enzyme (cytoplasmic domain, from Cama Biosciences); purchased Cama Biosciences (so in the source)
T2 sequence (P22607 397-806 limits assumed): as the sequence (P22607 397-806 V555L limits assumed) above, with L159V counted along it
Protocol: FGFR3 Wild Type Mobility Shift Assay (Enzymatic Assay)
as §1, with “wild type” for “V555L”, “domain,” for “domain carrying V555L mutation,”, “75” for “40”

C[C@H](Nc1c(-c2nc3cnc(N4CCOCC4)cc3[nH]2)c(=O)[nH]c2ccsc12)c1ncccn1 [Compound 2, (S)-6-(6-Morpholino-1H-imidazo[4,5-c]pyridin-2-yl)-7-((1-(pyrimidin-2-yl)ethyl)amino)thieno[3,2-b]pyridin-5(4H)-one]
IC50 [1]: 891000 pM | IC50 [2]: 320 pM | IC50 [3]: 1600 pM | IC50 [4]: 310 pM
